# Measurements from patent publication US20050059641A1, “Compositions and methods for treating and preventing cancer using analogs of vitamin D” (Aphios Corporation, priority 2003, published 2005).
# Key:
# [1] = test system: LNCaP cells (prostate cancer cells); experiment: 3H-thymidine incorporation assay, LNCaP; assay type: cell-based, human; conditions: 10^−6M
# Description: (§1) The inventors further studied the effect of 1,25(OH)2D3-3-BE on LNCAP cells (most closely resembling human hormone-sensitive prostate cancer) and PZ-HPV-7 cells (immortalized normal prostate cells). The cells were treated with ethanol or 10^−6M of either 1,25(OH)2D3 or 1,25(OH)2D3-3-BE for 16 hours and the effect on proliferation was determined by ^3H-thymidine incorporation assays as described earlier. The viable cell count was determined by Methylene blue assay. The Methylene blue assay is a simple colorimetric method that is widely used to determine the viable cell count.
# The inventors studied dose-dependency of antiproliferation and cytotoxicity by 1,25(OH)2D3 or 1,25(OH)2D3-3-BE in LNCaP cells. The cells were treated with 10^−8-10^−6M of either 1,25(OH)2D3 or 1,25(OH)2D3-3-BE or ethanol (used as a control). The effect on proliferation and viable cell count were determined by using ^3H-thymidine incorporation and Methylene blue assay respectively. […]
# (§2) In a study, investigators compared the growth-inhibitory effects of 25-OH-D3-3-BE and 1,25(OH)2D3 in several VDR-positive epithelial cells, e.g. keratinocytes (primary skin cells), MCF-7 cells (breast cancer cells), hormone-sensitive LNCaP and hormone-refractory PC3 cells (prostate cancer cells), and PZ-HPV-7 (papillovirus immortalized normal prostate cells) by using ^3H-thymidine incorporation assays (FIGS. 14-19).
# [2] = test system: PZ-HPV-7 (papillovirus immortalized normal prostate cells); experiment: 3H-thymidine incorporation assay, PZ-HPV-7; assay type: cell-based; conditions: PZ-HPV-7 cells, 10^−6M
# Description: It is well known that secretory epithelial cells are the main sites for the development of cancers of the breast, prostate and various other organs.
# as §1, §2
# PC-3 cells = experiment: DNA-fragmentation analysis; assay type: cell-based, human; conditions: 250 nM, 10 hours
# Description: (a) DNA-fragmentation analysis: PC-3 cells (2×10^6) were treated with 250 nM of 1,25(OH)2D3, 25-OH-D3 or 25-OH-D3-3-BE for 10 hours. The cells were harvested and lysed in 0.5 ml lysis buffer (20 mM Tris-HCl, 10 mM EDTA, 0.5% Triton X-100, pH 8.0), and DNA was extracted using phenol-chloroform procedure. The DNA was resuspended in 0.1 ml of 20 mM Tris-HCl, pH 8 and treated with Rnase, followed by electrophoresis on 1.2% agarose gel in TAE. The DNA was visualized under UV light after ethidinium bromide staining.
# caspase-3 = experiment: Caspase Colorimetric assay, caspase-3; assay type: cell-based; conditions: PC3 cells, 10 nM, 14 hours
# Description: (§3) Caspase-activity: There are several markers for apoptosis, and caspase activity is one of them; and their levels normally go up under apoptotic conditions. Investigators determined the levels of caspases 3, 8 and 9 by Caspase Colorimetric assay kits from R&D Systems (Minneapolis, Minn.) and used according to the manufacturer's instructions. Briefly, PC3 cells (1×10^6) were treated with 10 nM of 1,25(OH)2D3, 25-OH-D3 or 25-OH-D3-3-BE for 14 hours in culture medium (DMEM, 10% FBS and antibiotics). The cells were collected by centrifugation at 1000 RPM for 5 min. The cell pellet was lysed with lysis buffer, and the lysate was incubated on ice for 10 min. and centrifuged for 10,000 RPM for 5 min. Protein was estimated using Bradford protein estimation kit (BioRad). The enzymatic reactions were carried out in 96 well plate. For each reaction 100 μg lysate protein in 50 μl was incubated with 50 μl of 2×reaction buffer and 5 μl of caspase-3 or caspase-8 or caspase-9 calorimetric substrate for 2 h at 37° C. The absorbance was determined at 405 nm.
# caspase-8 = experiment: Caspase Colorimetric assay, caspase-8; assay type: cell-based; conditions: PC3 cells, 10 nM, 14 hours
# Description: as §3
structure (smiles),measurement,setting,value
"C=C1CCC(OC(=O)CBr)CC1=CC=C1CCCC2(C)C1CCC2C(C)CCCC(C)(C)O (stereo not shown) [25-OH-D3-3-BE, 25-hydroxyvitamin D3-3-bromoacetate]",growth-inhibitory effect (3H-thymidine incorporation),[1],"stronger antiproliferative agent than 1,25(OH)2D3"
same,lethal to the cells,[1],lethal
same,growth-inhibitory effect (3H-thymidine incorporation),[2],antiproliferative
same,lethal to the cells,[2],not
same,DNA fragmentation (apoptosis),PC-3 cells,DNA fragmentation was observed
same,Caspase-3 induction,caspase-3,induced
same,Caspase-8 induction,caspase-8,induced
